According to patent publication US11464770B2, “Anticancer pharmaceutical composition” (NATIONAL CANCER CENTER, priority 2016, dated 2022):
Read-outs that look alike come from different tables or passages of the source.

Legend:
[1] = test system: blood cancer cell lines (e.g. HL-60, Jurkat, Raji, Ramos, Daudi, MOLT-4); experiment: Cell based assay, cell viability (CellTiter-Glo), blood cancer cell lines; conditions: Homo sapiens
How it was run: (§1)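 Viability measured by ATP luminescence following 72 h treatment over a 0–2 μM final concentration range.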

[2] = test system: pancreatic cancer cell lines (e.g. MIA PaCa-2); experiment: Cell based assay, cell viability (CellTiter-Glo), pancreatic cancer cell lines; conditions: Homo sapiens
How it was run: as §1

neuroblastoma cell lines = experiment: Cell based assay, cell viability (CellTiter-Glo), neuroblastoma cell lines; conditions: Homo sapiens; SH-SY5Y cell line
How it was run: as §1

renal cancer cell lines = experiment: Cell based assay, cell viability (CellTiter-Glo), renal cancer cell lines; conditions: Homo sapiens; ACHN cells
How it was run: as §1

[3] = MV4-11, blood cancer cell line MV-4-11, 72 hours, read-out: IC50, MV-4-11
[4] = blood cancer cell line Daudi, 72 hours, read-out: IC50, Daudi
[5] = blood cancer cell line HL-60, 72 hours, read-out: IC50, HL-60
[6] = blood cancer cell line Jurkat, 72 hours, read-out: IC50, Jurkat
[7] = blood cancer cell line MOLT-4, 72 hours, read-out: IC50, MOLT-4
[8] = blood cancer cell line Raji, 72 hours, read-out: IC50, Raji
[9] = blood cancer cell line Ramos (RA 1), 72 hours, read-out: IC50, Ramos (RA 1)
[10] = blood cancer cell line U-937, 72 hours, read-out: IC50, U-937
[11] = pancreatic cancer cell line AsPC-1, 72 hours, read-out: IC50, AsPC-1
[12] = pancreatic cancer cell line BxPC-3, 72 hours, read-out: IC50, BxPC-3
[13] = pancreatic cancer cell line CFPAC-1, 72 hours, read-out: IC50, CFPAC-1
[14] = pancreatic cancer cell line Capan-1, 72 hours, read-out: IC50, Capan-1
[15] = pancreatic cancer cell line Capan-2, 72 hours, read-out: IC50, Capan-2
[16] = pancreatic cancer cell line MIA PaCa-2, 72 hours, read-out: IC50, MIA PaCa-2
[17] = pancreatic cancer cell line PANC-1, 72 hours, read-out: IC50, PANC-1

SMILES	IC50 [1, 3]	IC50 [1, 4]	IC50 [1, 5]	IC50 [1, 6]	IC50 [1, 7]	IC50 [1, 8]	IC50 [1, 9]	IC50 [1, 10]	IC50 [2, 11]	IC50 [2, 12]	IC50 [2, 13]	IC50 [2, 14]	IC50 [2, 15]	IC50 [2, 16]	IC50 [2, 17]	IC50 (neuroblastoma cell lines)	IC50 (renal cancer cell lines)
Cc1cc(C[S+]([O-])c2[nH]c3c(Cl)ccc(Cl)c3c(=O)c2C(=O)c2ccccc2)no1 (stereo not shown) [Compound 88, 3-benzoyl-5,8-dichloro-2-(((5-methylisoxazol-3-yl)methyl)sulfinyl)quinolin-4(1H)-one]	> 2000 nM	> 2000 nM	> 2000 nM	> 2000 nM	> 2000 nM	> 2000 nM	> 2000 nM	> 2000 nM	> 2000 nM	> 2000 nM	> 10000 nM	> 2000 nM	> 2000 nM	> 2000 nM	> 2000 nM	1510 nM	> 2000 nM
CC(=O)c1c([S+]([O-])Cc2ccc(C(=O)c3ccccc3)cc2)[nH]c2c(Br)ccc(Cl)c2c1=O (stereo not shown) [Compound 63, 3-acetyl-2-((4-benzoylbenzyl)sulfinyl)-8-bromo-5-chloroquinolin-4(1H)-one]	> 2000 nM	> 2000 nM	> 2000 nM	> 2000 nM	> 2000 nM	> 2000 nM	> 2000 nM	> 2000 nM	> 2000 nM	> 2000 nM	> 10000 nM	> 2000 nM	> 2000 nM	> 2000 nM	> 2000 nM	> 2000 nM	> 2000 nM
CC(=O)c1c([S+]([O-])Cc2ccc(N)nc2)[nH]c2c(Br)ccc(Cl)c2c1=O (stereo not shown) [Compound 100, 3-acetyl-2-(((6-aminopyridin-3-yl)methyl)sulfinyl)-8-bromo-5-chloroquinolin-4(1H)-one]	> 2000 nM	> 2000 nM	> 2000 nM	> 2000 nM	> 2000 nM	> 2000 nM	> 2000 nM	> 2000 nM	> 2000 nM	> 2000 nM	> 10000 nM	> 2000 nM	> 2000 nM	> 2000 nM	> 2000 nM	> 2000 nM	> 2000 nM
CC(=O)c1c([S+]([O-])Cc2ccc(NS(C)(=O)=O)cc2)[nH]c2c(Br)ccc(Cl)c2c1=O (stereo not shown) [Compound 103, N-(4-(((3-acetyl-8-bromo-5-chloro-4-oxo-1,4-dihydroquinolin-2-yl)sulfinyl)methyl)phenyl)methane-sulfonamide]	> 2000 nM	> 2000 nM	> 2000 nM	> 2000 nM	> 2000 nM	> 2000 nM	> 2000 nM	> 2000 nM	> 2000 nM	> 2000 nM	> 10000 nM	> 2000 nM	> 2000 nM	> 2000 nM	> 2000 nM	1010 nM	> 2000 nM
COCCNc1ccc(C[S+]([O-])c2[nH]c3c(Br)ccc(Cl)c3c(=O)c2C(C)=O)cn1 (stereo not shown) [Compound 105, 3-acetyl-8-bromo-5-chloro-2-(((6-((2-methoxyethyl)amino)pyridin-3-yl)methyl)sulfinyl)quinolin-4(1H)-one]	> 2000 nM	> 2000 nM	> 2000 nM	> 2000 nM	> 2000 nM	> 2000 nM	> 2000 nM	> 2000 nM	> 2000 nM	> 2000 nM	> 10000 nM	> 2000 nM	> 2000 nM	> 2000 nM	> 2000 nM	> 2000 nM	> 2000 nM
COc1cccc2[nH]c([S+]([O-])Cc3cc(C)on3)c(C(C)=O)c(=O)c12 (stereo not shown) [Compound 94, 3-acetyl-5-methoxy-2-(((5-methylisoxazol-3-yl)methyl)sulfinyl)quinolin-4(1H)-one]	1380 nM	> 2000 nM	> 2000 nM	> 2000 nM	> 2000 nM	> 2000 nM	> 2000 nM	> 2000 nM	> 2000 nM	> 2000 nM	> 10000 nM	> 2000 nM	> 2000 nM	1650 nM	> 2000 nM	1760 nM	> 2000 nM
CC(=O)c1c(S)[nH]c2c(Br)ccc(Cl)c2c1=O [Compound 62, 3-acetyl-8-bromo-5-chloro-2-mercaptoquinolin-4(1H)-one]	> 2000 nM	> 2000 nM	> 2000 nM	> 2000 nM	> 2000 nM	> 2000 nM	> 2000 nM	> 2000 nM	> 2000 nM	> 2000 nM	> 10000 nM	> 2000 nM	> 2000 nM	> 2000 nM	> 2000 nM	> 2000 nM	> 2000 nM
CC(=O)c1c([S+]([O-])CN2C(=O)c3ccccc3C2=O)[nH]c2c(Cl)ccc(Cl)c2c1=O (stereo not shown) [Compound 90, 2-(((3-acetyl-5,8-dichloro-4-oxo-1,4-dihydroquinolin-2-yl)sulfinyl)methyl)isoindoline-1,3-dione]	> 2000 nM	> 2000 nM	> 2000 nM	> 2000 nM	> 2000 nM	> 2000 nM	> 2000 nM	> 2000 nM	> 2000 nM	> 2000 nM	> 10000 nM	> 2000 nM	> 2000 nM	> 2000 nM	> 2000 nM	> 2000 nM	> 2000 nM
CC(=O)c1c([S+](C)[O-])n(Cc2ccc(F)c(Cl)c2)c2c(Br)ccc(Cl)c2c1=O (stereo not shown) [Compound 22, 3-acetyl-8-bromo-5-chloro-1-(3-chloro-4-fluorobenzyl)-2-(methylsulfinyl)quinolin-4(1H)-one]	> 2000 nM	> 2000 nM	> 2000 nM	> 2000 nM	> 2000 nM	> 2000 nM	> 2000 nM	> 2000 nM	> 2000 nM	> 2000 nM	> 10000 nM	> 2000 nM	> 2000 nM	> 2000 nM	> 2000 nM	> 2000 nM	> 2000 nM
CC(=O)c1c(SCc2cccc(F)c2)[nH]c2c(Br)ccc(Cl)c2c1=O [Compound 49, 3-acetyl-8-bromo-5-chloro-2-((3-fluorobenzyl)thio)quinolin-4(1H)-one]	> 2000 nM	> 2000 nM	> 2000 nM	> 2000 nM	> 2000 nM	> 2000 nM	> 2000 nM	> 2000 nM	> 2000 nM	> 2000 nM	> 10000 nM	> 2000 nM	> 2000 nM	> 2000 nM	> 2000 nM	> 2000 nM	> 2000 nM
CC(=O)c1c(SC(C)C)[nH]c2c(Br)ccc(Cl)c2c1=O [Compound 24, 3-acetyl-8-bromo-5-chloro-2-(isopropylthio)quinolin-4(1H)-one]	> 2000 nM	> 2000 nM	> 2000 nM	> 2000 nM	> 2000 nM	> 2000 nM	> 2000 nM	> 2000 nM	> 2000 nM	> 2000 nM	> 10000 nM	> 2000 nM	> 2000 nM	> 2000 nM	> 2000 nM	> 2000 nM	> 2000 nM
CC(=O)c1c([S+](C)[O-])n(S(=O)(=O)c2ccc(C(C)(C)C)cc2)c2c(Br)ccc(Cl)c2c1=O (stereo not shown) [Compound 42, 3-acetyl-8-bromo-1-((4-(tert-butyl)phenyl)sulfonyl)-5-chloro-2-(methylsulfinyl)quinolin-4(1H)-one]	> 2000 nM	> 2000 nM	> 2000 nM	> 2000 nM	> 2000 nM	> 2000 nM	> 2000 nM	> 2000 nM	> 2000 nM	> 2000 nM	> 10000 nM	> 2000 nM	> 2000 nM	> 2000 nM	> 2000 nM	> 2000 nM	> 2000 nM
CC(=O)c1c([S+](C)[O-])n(S(=O)(=O)C(F)(F)F)c2c(Br)ccc(Cl)c2c1=O (stereo not shown) [Compound 36, 3-acetyl-8-bromo-5-chloro-2-(methylsulfinyl)-1-((trifluoromethyl)sulfonyl)quinolin-4(1H)-one]	> 2000 nM	> 2000 nM	> 2000 nM	> 2000 nM	> 2000 nM	> 2000 nM	> 2000 nM	> 2000 nM	> 2000 nM	> 2000 nM	> 10000 nM	> 2000 nM	> 2000 nM	> 2000 nM	> 2000 nM	> 2000 nM	> 2000 nM
CSc1[nH]c2c(Br)ccc(Cl)c2c(=O)c1C(C)=O [Compound 2, 3-acetyl-8-bromo-5-chloro-2-(methylthio)quinolin-4(1H)-one]	> 2000 nM	> 2000 nM	> 2000 nM	> 2000 nM	> 2000 nM	> 2000 nM	> 2000 nM	> 2000 nM	> 2000 nM	> 2000 nM	> 10000 nM	> 2000 nM	> 2000 nM	> 2000 nM	> 2000 nM	> 2000 nM	> 2000 nM
CSc1c(C(C)=O)c(=O)c2c(Cl)ccc(Br)c2n1S(=O)(=O)c1ccc(Cl)cc1 [Compound 37, 3-acetyl-8-bromo-5-chloro-1-((4-chlorophenyl)sulfonyl)-2-(methylthio)quinolin-4(1H)-one]	> 2000 nM	> 2000 nM	> 2000 nM	> 2000 nM	> 2000 nM	> 2000 nM	> 2000 nM	> 2000 nM	> 2000 nM	> 2000 nM	> 10000 nM	> 2000 nM	> 2000 nM	> 2000 nM	> 2000 nM	> 2000 nM	> 2000 nM
Cc1cc(C[S+]([O-])c2[nH]c3c(Cl)ccc(Cl)c3c(=O)c2C(=O)C2CC2)no1 (stereo not shown) [Compound 97, 5,8-dichloro-3-(cyclopropanecarbonyl)-2-(((5-methylisoxazol-3-yl)methyl)sulfinyl)quinolin-4(1H)-one]	800 nM	1040 nM	> 2000 nM	510 nM	770 nM	1290 nM	700 nM	1350 nM	1740 nM	> 2000 nM	> 10000 nM	1520 nM	> 2000 nM	860 nM	> 2000 nM	600 nM	1330 nM
COc1cccc2[nH]c([S+]([O-])Cc3ccc(S(F)(F)(F)(F)F)cc3)c(C(C)=O)c(=O)c12 (stereo not shown) [Compound 93, 3-acetyl-5-methoxy-2-((4-(pentafluoro--sulfanyl)benzyl)sulfinyl)quinolin-4(1H)-one]	> 2000 nM	> 2000 nM	> 2000 nM	> 2000 nM	> 2000 nM	> 2000 nM	> 2000 nM	> 2000 nM	> 2000 nM	> 2000 nM	> 10000 nM	> 2000 nM	> 2000 nM	> 2000 nM	> 2000 nM	> 2000 nM	> 2000 nM
